Measured values as given in patent US5763430A, “Method of treating a viral infection by administering a steroid compound” (priority 1995, dated 1998).
Entries after “also recorded” stand apart in the source; their conditions may differ.

What was measured:
[1] = molecular target: rabbit NHE3 (Oryctolagus cuniculus, UniProt P26432)
Protocol: Internal pH was measured either following acid loading or in the absence of an acid-loading challenge, with the results shown in FIGS. 1A and 1B.
Specifically, PS120 fibroblasts transfected with rabbit NHE3 were grown in supplemented Dulbecco's-modified Eagle's medium as described by Levine et al., J. Biol. Chem. 268, 1993, 25527-25535. […] For cells not acid-preloaded, the actual internal pH value was monitored as a function of time following addition of squalamine, with the results depicted in FIG. 1B.
PS120 fibroblasts transfected with rabbit NHE3 were grown and acid preloaded by exposure to 40 mM NH4 Cl as described above in conjunction with FIGS. 1A and 1B. Internal cellular pH changes expressed as the rate of pH recovery as a function of restored extracellular sodium ion concentration following exposure to 10 μg/ml of the compound were assayed with the fluorescent dye BCECF-AM as described above.

[2] = system: human coronary artery smooth muscle; assay: proliferation of human coronary artery smooth muscle in vitro; assay type: cell-based; settings: FIG. 15
Excerpt: Aminosterols of the invention may also have utility in inhibiting the growth factor mediated proliferation of smooth muscle within the artery. Following coronary angioplasty, reocclusion commonly occurs, secondary to reparative proliferation of the vascular smooth muscle within the wall of the surgically manipulated blood vessel. This process generally takes place over the course of 7-10 days. To evaluate whether an agent could prevent the growth factor mediated proliferation of smooth muscle within the artery, compound 1436 was evaluated in vitro for its effect on the proliferation of human coronary artery smooth muscle. Results for compound 1436 are shown in FIG. 13, and those for squalamine are shown in FIG. 14, with FIG. 15 being a composite logarithmic plot.

[3] = system: B16 melanoma; assay: suppression of growth of B16 melanoma in C57B mice; assay type: in vivo, mouse
Protocol: The growth of B16 melanoma in C57B mice is dependent upon neovascularization.
Using the growth of B16 melanoma cells in C57B mice, a recognized model for the evaluation of inhibitors of angiogenesis on the growth of cancers, the effects of subcutaneous, intraperitoneal and oral administration of squalamine were evaluated.
Based on the idea that tumor growth involves both the clonal expansion of a malignant cell along with the development of a supporting vascular supply, a combination of compound 1436 with squalamine was tested to determine whether it would achieve a synergistic effect on solid tumor growth. This concept was evaluated in the B16 melanoma model.
Animals were implanted with B16 melanoma followed by treatment with compound 1436 or 1256 administered in a combined schedule or separately. […] Thus, a combination of these two compounds achieves a therapeutic benefit in tumors dependent on neovascularization that may prevent metastatic spread.

[4] = system: human microvascular cells; assay: inhibition of endothelial cell cord formation in vitro; assay type: cell-based
Outline: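 Human microvascular endothelial cells plated on collagen matrix with VEGF and basic FGF; compound effect on cord-like structure formation scored in a standard cord formation assay.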

[5] = system: chick embryo vitelline capillaries; assay: chick embryo vitelline capillary regression assay; assay type: in vivo
Protocol: Using the chick embryo vitelline capillaries assay, compounds were tested for their ability to induce capillary regression. Each compound was applied in 0.1 ml of 15% Ficol 400 and PBS onto the embryo, and vascular regression was assessed after 60 minutes.
The 3-day chick embryo consists of an embryonic disc from which numerous vessels emerge and return, forming a "FIG. 8"-shaped structure--the embryo in the center with vascular loops extending outward over both poles. […] Following a lag period of around 15 minutes, the constriction of continuity between capillary and secondary vessels, generally on the "venous" side, was observed. Continued pulsatile blood flow progressed, resulting in a "swelling" of the blind tube, followed by a pinching off of the remaining connection and formation of an enclosed vascular sac resembling a "blood island." This process progressed until only the largest vessels remained intact.

[6] = system: human NHE1; assay: internal pH changes in PS120 fibroblasts transfected with human NHE1; assay type: cell-based; settings: 5 μg/ml, FIG. 2B
Protocol: (§1) PS120 fibroblasts transfected with rabbit: or human NHE1 were grown as described above.

[7] = system: human lymphocytes; assay: inhibition of mitogen (PHA)-stimulated growth of human T-cells; settings: 10 μg/ml
Protocol: Specific assays were used to identify steroids with a particular biological activity, such as an assay for inhibition of mitogen-stimulated growth of human T-cells.
Human heparinized blood, freshly collected, was introduced into tissue culture flasks containing 10 μg/ml phytohaemagglutinin (PHA) in RPMI medium with 10% FCS. Various purified steroids were introduced subsequently at concentrations of 1, 5, and 10 μg/ml. Cultures were incubated for 72 hours, after which time colcemid was added to 1 μg/ml. Cultures were maintained for an additional 2 hours, and cells collected. Miotic figures were estimated using standard cytochemical techniques, following Giemsa staining.

[8] = system: bovine pulmonary endothelial cells; assay: growth inhibition of endothelial cells in vitro (absorbance at 600 nm); assay type: cell-based; settings: 1 μg/ml, FIG. 3A
[9] = system: Murine B16 melanoma; assay: growth inhibition in vitro; assay type: cell-based; settings: except at very high concentrations
Excerpt: As set forth in Table 7 below, all malignant tumors evaluated in tissue culture, endothelial cells and vascular smooth muscle cells were sensitive to inhibition. Thus, compound 1436 has application in the control of growth factor dependent proliferation of many types of tissue.

[10] = mouse IV PK study; assay type: in vivo; settings: i.v., mouse blood stream, HPLC
Protocol: To assess clearance, a mouse IV PK study was performed for compound 319 and squalamine. The compound was administered i.v. and blood samples were taken every 10 minutes. The concentration of the administered steroid was determined by HPLC analysis.

[11] = system: rabbit NHE1; assay: internal pH changes in PS120 fibroblasts transfected with rabbit NHE1; assay type: cell-based; settings: 5 μg/ml, FIG. 2A
Protocol: as §1

[12] = system: stage 59-60 Xenopus tadpole; assay: Xenopus tadpole assay; settings: 10 μg/ml; for tadpole response: about 1 hour
[13] = system: human umbilical venous endothelial cells; assay: LPS-induced neutrophil adherence to human umbilical venous endothelial cells; settings: 10 μg, 1.0 μg, or 0.1 μg; activated human endothelial cells
Protocol: In these experiments, approximately 2×10^5 human umbilical venous cells (passage 2-6) were plated per well. The cells were grown in serum-free media overnight. For induction, either TNF-α (40 ng/ml) was added to endothelial cells for 6 hours prior to adding neutrophils or LPS (100 ng/ml) was added for 4-6 hours. […] After activation of the endothelial cells, approximately 50×10^6 neutrophils were added per well. The plates were gently rocked for 30 minutes at room temperature, followed by removal of the media and washing in serum-free media three times and then photographing of each well. […] A monoclonal Ab to ICAM-1 was a positive control.

[14] = system: human epithelial cell line MCF 10A; assay: growth inhibition of epithelial cells in vitro (absorbance at 600 nm); assay type: cell-based; settings: 10 μg/ml, FIG. 3B

rabbit NHE3, sequence (P26432 30-832): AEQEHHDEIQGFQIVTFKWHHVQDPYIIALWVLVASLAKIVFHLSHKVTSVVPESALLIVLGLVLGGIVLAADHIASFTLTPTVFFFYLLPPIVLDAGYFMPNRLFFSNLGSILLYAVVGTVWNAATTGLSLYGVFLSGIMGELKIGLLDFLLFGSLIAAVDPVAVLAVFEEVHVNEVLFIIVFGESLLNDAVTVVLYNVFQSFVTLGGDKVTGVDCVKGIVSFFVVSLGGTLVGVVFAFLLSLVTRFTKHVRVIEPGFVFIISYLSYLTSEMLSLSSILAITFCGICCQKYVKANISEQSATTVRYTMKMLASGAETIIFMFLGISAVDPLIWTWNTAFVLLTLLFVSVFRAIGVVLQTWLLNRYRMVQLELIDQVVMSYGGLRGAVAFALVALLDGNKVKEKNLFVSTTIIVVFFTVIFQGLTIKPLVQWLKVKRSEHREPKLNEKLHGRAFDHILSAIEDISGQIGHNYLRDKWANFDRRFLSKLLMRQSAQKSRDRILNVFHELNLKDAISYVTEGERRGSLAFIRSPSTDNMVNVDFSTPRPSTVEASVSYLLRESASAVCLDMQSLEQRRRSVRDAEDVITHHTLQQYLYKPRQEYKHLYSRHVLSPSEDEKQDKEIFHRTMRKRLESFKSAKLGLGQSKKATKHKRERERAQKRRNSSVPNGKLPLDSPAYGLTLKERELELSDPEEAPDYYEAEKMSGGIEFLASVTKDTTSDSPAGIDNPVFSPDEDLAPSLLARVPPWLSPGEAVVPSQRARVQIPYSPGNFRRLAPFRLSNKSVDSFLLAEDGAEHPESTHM

Question: Which “inhibition of NHE3 (rate of pH recovery)” value ([1]; 5 μg/ml squalamine, FIGS. 1A, 1B) does the source give for CC(C)[C@@H](CC[C@@H](C)[C@H]1CC[C@H]2[C@@H]3[C@H](O)C[C@H]4C[C@@H](NCCCNCCCCN)CC[C@]4(C)[C@H]3CC[C@]12C)OS(=O)(=O)O [Compound 1256] here?
Answer: inhibited NHE3 with respect to proton concentration at both Km and Vmax levels

Question: And the “resting pH of cells” value ([1]; 5 μg/ml, FIG. 1B, not acid-preloaded)?
Answer: the resting pH of these cells was also inhibited

Question: What about the “growth of human coronary artery smooth muscle” value [2] of the same compound?
Answer: suppress in vitro the growth

Question: What about the “impact on tumor volume” value ([3]; 5 mg/kg/day alone, FIG. 12) of the same compound?
Answer: no significant impact on tumor volume

Question: And the “body weight and hematologic parameters” value ([3]; mouse, in vivo)?
Answer: no significant depression

Question: What about the tumor volume ([3]; subcutaneous, intraperitoneal or oral, FIGS. 4A-4C) of the same compound?
Answer: dose-dependent suppression of tumor volume

Question: What about the minimal effective concentration ([4]; Homo sapiens, Endothelial cell, Table II, read-out: Minimum Effective Concentration, Cord Formation) of the same compound?
Answer: 0.01 to 0.1 µg/mL

Question: What about the “cell viability or proliferation” value ([4]; at cord-inhibiting concentrations) of the same compound?
Answer: does not appear to profoundly affect cell viability or proliferation

Question: What about the “effect on vitelline capillaries” value ([5]; 3- to 5-day chick embryos) of the same compound?
Answer: disrupt vitelline capillaries

Question: And the relative activity ([5]; Table 5)?
Answer: especially active

Question: What about the lag period ([5]; constriction between capillary and secondary vessels) of the same compound?
Answer: around 15 minutes

Question: What about the hemorrhage / hemolysis ([5]; in vivo, listed as Squalamine) of the same compound?
Answer: No hemorrhage was seen; also recorded: absence of hemolysis

Question: What about the “inhibition of human NHE1” value [6] of the same compound?
Answer: no inhibitory activity

Question: And the “inhibition of blast transformation” value [7]?
Answer: Some effect

Question: And the “growth of bovine pulmonary artery endothelial cells” value [8]?
Answer: inhibited the growth

Question: What about the “cytostatic activity against B16 in culture” value [9] of the same compound?
Answer: minimal cytostatic activity

Question: And the half-life [10]?
Answer: ~35 min

Question: What about the “inhibition of rabbit NHE1” value [11] of the same compound?
Answer: no inhibitory activity

Question: And the “time to death of tadpole” value [12]?
Answer: ≤ 2 h

Question: And the tadpole response [12]?
Answer: Vascular occlusion in fine capillaries of tail. No effect on vascular flow through hands or feet

Question: And the tadpole response ([12]; listed as squalamine)?
Answer: blood flow through the capillaries of the tail shut down; also recorded: common vascular occlusive effect

Question: And the “inhibition of neutrophil adherence” value [13]?
Answer: no inhibition

Question: And the “growth of epithelial cells” value [14]?
Answer: no effect on the growth
